Results as given in patent US20060045847A1, “Method for determination of anabolic activity” (priority 2004, published 2006).
Where two headings read alike, the source gives them in different places.

Columns and labels:
[1] = tested on: gonadectomized (GDX) male C57BL6 mice; experiment: 7-day daily s.c. treatment, androgen-sensitive tissue weights in gonadectomized mice; assay type: in vivo, mouse; settings: daily s.c. 7 days, DHT 0.1 mg or THG 0.5 mg; for levator ani muscle weight: versus intact animals; for prostate weight: versus intact controls
Source text: We next used the best recognized in vivo assay to assess the in vivo activity of THG [Labrie, C., A. Bélanger, and F. Labrie, Androgenic activity of dehydroepiandrosterone and androstenedione in the rat ventral prostate. Endocrinology, 1988. 123: p. 1412-1417]. […] The levator ani is an androgen-sensitive muscle [Boissonneault, G., et al., Depressed translational activity in the androgen sensitive levator ani muscle of the rat. J Steroid Biochem, 1989. 32(4): p. 507-13] which has long been recognized as a myotropic marker of the androgenic/anabolic activity of steroids [Eisenberg, S., R. Buie, Jr., and L. Tobian, Jr., Adrenal cortical function in essential hypertension; a study of sweat sodium concentration. Am J Med Sci, 1950. 220(3): p. 287-9].
Eleven- to twelve-week-old male C57BL6 mice obtained from Harlan (Indianapolis, Ind.) were allowed to acclimate for 2 weeks. The animals were housed individually in an environmentally-controlled room (temperature: 22±3° C.; humidity: 50±20%; 12-h light-12-h dark cycles, lights on at 07:15 h). The mice had free access to tap water and a certified rodent feed (Lab Diet 5002 (pellet), Ralston Purina, St-Louis, Mo.). The experiment was conducted in an animal facility approved by the Canadian Council on Animal Care (CCAC) and the Association for Assessment and Accreditation of Laboratory Animal Care (AAALAC). The study was performed in accordance with the CCAC Guide for Care and Use of Experimental Animals.
(§1) Animals weighing between 24.0 and 32.4 g (mean=28.2 g) were randomized according to body weight and were assigned to nineteen groups of 10 animals each. On day 1 of the study, animals were castrated (GDX) under isoflurane anesthesia. All animals were sacrificed 7 days after GDX. […] A GDX-vehicle injected group were used as a control. Eight intact mice of the same strain, age and body weight were sacrificed as described above and tissues were collected, weighed and discarded. The mice sacrificed 2, 4 and 7 days after starting treatment received daily injection of the steroids and were sacrificed 24 h after last injection under isoflurane anesthesia and exsanguinated via cardiac puncture. The prostate (ventral+dorsal), seminal vesicles, preputial glands as well as gastrocnemius and levator ani muscle were collected, freed from adhering tissue or fluid and weighed.

[2] = biological target: T1, human androgen receptor (Homo sapiens, UniProt P10275); experiment: Androgen receptor (AR) binding assay, displacement of [3H]R1881 (hydroxylapatite method)
T1 construct: expressed in transfected cells; host or cells: HEK-293 cells stably transfected with the pCMV neo-hAR plasmid; the 105 000 x g cytosol was used
T1 sequence (P10275 1-920): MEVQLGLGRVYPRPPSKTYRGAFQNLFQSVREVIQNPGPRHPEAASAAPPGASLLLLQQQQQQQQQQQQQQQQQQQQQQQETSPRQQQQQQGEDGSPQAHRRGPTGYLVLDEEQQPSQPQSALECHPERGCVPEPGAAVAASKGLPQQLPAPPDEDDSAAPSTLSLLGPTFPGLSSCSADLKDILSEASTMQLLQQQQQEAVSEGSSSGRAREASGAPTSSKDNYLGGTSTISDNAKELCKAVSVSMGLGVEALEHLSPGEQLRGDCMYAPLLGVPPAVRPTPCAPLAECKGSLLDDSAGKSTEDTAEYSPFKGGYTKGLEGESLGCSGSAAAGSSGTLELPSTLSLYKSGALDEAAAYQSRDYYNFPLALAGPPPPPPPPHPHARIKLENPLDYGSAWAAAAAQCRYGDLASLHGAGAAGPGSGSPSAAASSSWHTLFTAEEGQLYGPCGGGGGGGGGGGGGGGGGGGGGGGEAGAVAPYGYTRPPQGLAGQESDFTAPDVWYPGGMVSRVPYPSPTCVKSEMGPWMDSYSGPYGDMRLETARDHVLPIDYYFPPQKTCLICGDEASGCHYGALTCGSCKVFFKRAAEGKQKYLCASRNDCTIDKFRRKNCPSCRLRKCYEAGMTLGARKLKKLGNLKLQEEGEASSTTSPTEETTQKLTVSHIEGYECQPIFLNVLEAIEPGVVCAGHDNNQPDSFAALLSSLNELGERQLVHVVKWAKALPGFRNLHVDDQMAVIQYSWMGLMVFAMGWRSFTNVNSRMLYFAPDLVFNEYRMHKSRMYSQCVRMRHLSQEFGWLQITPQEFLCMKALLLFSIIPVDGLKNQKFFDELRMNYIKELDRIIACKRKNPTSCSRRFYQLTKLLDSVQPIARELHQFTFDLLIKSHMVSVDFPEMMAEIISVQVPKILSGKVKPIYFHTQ
Procedure: The incubation was performed with 3 nM [^3H]R1881 for 16 h at 0-4° C. in the presence or absence of the indicated concentrations of unlabeled compounds.
Androgen Receptor (AR) Assay
Preparation of Human Embryonic Kidney (HEK-293) cells stably Transfected with Human AR (hAR): The pCMV neo-hAR plasmid [Huang, X.-F. and V. Luu-The, Modulation of the androgenic response by recombinant human 11-cis retinol dehydrogenase. J. Steroid Biochem., 2001. 77(2-3): p. 129-133] was transfected into HEK-293 cells using lipofectin transfection kit (Life Technologies, Ontario, Canada), and cells resistant to G418 were isolated as previously described [Dufort, I., et al., Characteristics of a highly labile human type 5 17beta-hydroxysteroid dehydrogenase. Endocrinology, 1999. 140(2): p. 568-574]. On the morning of the binding assay, a pellet of HEK-293 hAR cells was thawed, suspended in buffer, sonicated and centrifuged at 105 000×g for 90 min. The androgen binding assay was performed with the hydroxylapatite (HAP) method [Martel, C., et al., Binding characteristics of novel nonsteroidal antiestrogens to the rat uterine estrogen receptors. J. Steroid Biochem. Mol. Biol., 1998. 64: p. 199-205] using HEK-293 hAR cell cytosol preparation (0.1 ml) and 3 nM [^3H]R1881.

[3] = tested on: androgen-sensitive genes in levator ani muscle, gastrocnemius muscle and prostate; experiment: Microarray gene expression profile in tissues of GDX mice, genes modulated in common with DHT; assay type: in vivo, mouse; settings: s.c. 0.5 mg THG vs 0.1 mg DHT, 0.5 h to 7 days
Source text: The genes selected were those identified in common according to the Affymetrix, MAS 5.0 and RMA program [Gautier, L., et al., affy—analysis of Affymetrix GeneChip data at the probe level. Bioinformatics, 2004. 20(3): p. 307-15]. Color scale representing days of fold change due to treatments is shown below the figure.
The selected genes were clustered by Euclidean distance. Columns represents each one of the 790 selected gene and each row a particular treatement group. A pseudo-colored representation of relative intensity is shown such that red indicates high, blue low and yellow unchanged expression, with scale shown at the right.
In the prostate, on the other hand, the classical androgen-sensitive tissue [Labrie, C., A. Bélanger, and F. Labrie, Androgenic activity of dehydroepiandrosterone and androstenedione in the rat ventral prostate. Endocrinology, 1988. 123: p.
as §1, with “The prostate (ventral+dorsal), seminal vesicles, preputial glands as well as gastrocnemius and levator ani muscle were collected, freed from adhering tissue or fluid and weighed.” left out
RNA extraction and microarrays tissues were snap-frozen in liquid nitrogen and kept at −80° C. prior to RNA extraction. […] Scanned images were analyzed with Affymetrix GCOS v1.1 software and with GeneSpring 6.1 software (Silicon Genetics, Redwood City, Calif.) as described [Vasseur, S., et al., Gene expression profiling by DNA microarray analysis in mouse embryonicfibroblasts transformed by rasV12 mutated protein and the E1A oncogene. […]

[4] = tested on: mouse prostate; experiment: Preliminary experiment: stimulation of mouse prostate weight, potency relative to DHT; assay type: in vivo; settings: data not shown
Source text: We next used the best recognized in vivo assay to assess the in vivo activity of THG [Labrie, C., A. Bélanger, and F. Labrie, Androgenic activity of dehydroepiandrosterone and androstenedione in the rat ventral prostate. Endocrinology, 1988. 123: p. 1412-1417]. […] Similar observations were made for the preputial gland. The levator ani is an androgen-sensitive muscle [Boissonneault, G., et al., Depressed translational activity in the androgen sensitive levator ani muscle of the rat. J Steroid Biochem, 1989. 32(4): p. 507-13] which has long been recognized as a myotropic marker of the androgenic/anabolic activity of steroids [Eisenberg, S., R. Buie, Jr., and L. Tobian, Jr., Adrenal cortical function in essential hypertension; a study of sweat sodium concentration. Am J Med Sci, 1950. 220(3): p. 287-9].

SMILES	preputial gland weight [1]	seminal vesicle weight [1]	levator ani muscle weight [1]	prostate weight [1]	relative potency to displace [3H]R1881 from the human AR [2]	number of genes commonly modulated by DHT and THG in gastrocnemius muscle [3] [genes]	number of genes commonly modulated by DHT and THG in levator ani muscle [3] [genes]	number of genes commonly modulated by DHT and THG in prostate [3] [genes]	relative potency to displace [3H]R1881 from the human AR ([2]; 3 nM [3H]R1881, 16 h at 0-4° C., HEK-293 hAR cell cytosol, THG = 1.0)	potency relative to DHT as stimulator of the weight of the mouse prostate [4] [%]
C[C@]12CCC(=O)C[C@@H]1CC[C@@H]1[C@@H]2CC[C@]2(C)[C@@H](O)CC[C@@H]12 [DHT, dihydrotestosterone, reference compound]	completely reversed the GDX-induced atrophy	completely reversed the GDX-induced atrophy	increased weight of levator ani to values not different from intact animals	completely reversed the GDX-induced atrophy of the prostate	–	–	–	–	–	–
C[C@]1(O)CC[C@H]2[C@@H]3CCC4=CC(=O)CCC4=C3C=C[C@@]21C [R1881, methyltrienolone, reference compound]	–	–	–	–	0.72	–	–	–	–	–
CC[C@]1(O)CC[C@H]2[C@@H]3CCC4=CC(=O)CCC4=C3C=C[C@@]21CC [THG, tetrahydrogestrinone]	completely reversed the GDX-induced atrophy	completely reversed the GDX-induced atrophy	increased weight of levator ani to values not different from intact animals	reversed the effect of GDX, to a value not statistically different from intact controls	–	112	790	1121	1.0	20
